Patent US20220313698A1, “MODULATORS OF CYSTIC FIBROSIS TRANSMEMBRANE CONDUCTANCE REGULATOR” (Vertex Pharmaceuticals Incorporated, priority 2019, published 2022)

Target: CFTR-mediated chloride transport (Homo sapiens, UniProt P13569)
Test: Corrector Assay B - membrane potential dye assay (enteroid cells);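 also: methyl oxonol membrane potential fluorescence followed over 15 min after switching to chloride-free buffer with forskolin, 100 µM IBMX and ivacaftor, in presence of CaCC blockers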
Details: for Corrector Assay B % activity: % of chloride transport of triple combination control (3 μM Compound A + 3 μM tezacaftor + 300 nM ivacaftor); for EC50: read-out: Corrector Assay B EC50, human intestinal enteroid cells, 18-24 h incubation, acute 10 μM forskolin + 300 nM ivacaftor
Method: Base medium (ADF+++) consisted of Advanced DMEM/Ham's F12, 2 mM Glutamax, 10 mM HEPES, 1 μg/ml penicillin/streptomycin.
Intestinal enteroid maintenance medium (IEMM) consisted of ADF+++, 1×B27 supplement, 1×N2 supplement, 1.25 mM N-acetyl cysteine, 10 mM Nicotinamide, 50 ng/mL hEGF, 10 nM Gastrin, 1 μg/mL hR-spondin-1, 100 ng/mL hNoggin, TGF-b type 1 inhibitor A-83-01, 100 μg/mL Primocin, 10 μM P38 MAPK inhibitor SB202190.
Bath 1 Buffer consisted of 1 mM MgCl2, 160 mM NaCl, 4.5 mM KCl, 10 mM HEPES, 10 mM Glucose, 2 mM CaCl2).
Chloride Free Buffer consisted of 1 mM Magnesium Gluconate, 2 mM Calcium Gluconate, 4.5 mM Potassium Gluconate, 160 mM Sodium Gluconate, 10 mM HEPES, 10 mM Glucose.
Bath 1 Dye Solution consisted of Bath 1 Buffer, 0.04% Pluronic F127, 20 μM Methyl Oxonol, 30 μM CaCCinh-A01, 30 μM Chicago Sky Blue.
Chloride Free Dye Solution consisted of Chloride Free Buffer, 0.04% Pluronic F127, 20 μM Methyl Oxonol, 30 μM CaCCinh-A01, 30 μM Chicago Sky Blue.
Chloride Free Dye Stimulation Solution consisted of Chloride Free Dye Solution, 10 μM forskolin, 100 μM IBMX, and 300 nM Ivacaftor.
Cells were recovered in cell recovery solution, collected by centrifugation at 650 rpm for 5 min at 4° C., resuspended in TryPLE and incubated for 5 min at 37° C. Cells were then collected by centrifugation at 650 rpm for 5 min at 4° C. and resuspended in IEMM containing 10 μM ROCK inhibitor (RI). The cell suspension was passed through a 40 μm cell strainer and resuspended at 1×10^6 cells/mL in IEMM containing 10 μM RI. Cells were seeded at 5000 cells/well into multi-well plates and incubated for overnight at 37° C., 95% humidity and 5% CO2 prior to assay.
Briefly, cells were washed 5 times in Bath 1 Buffer. Bath 1 Dye Solution was added and the cells were incubated for 25 min at room temperature. Following dye incubation, cells were washed 3 times in Chloride Free Dye Solution. Chloride transport was initiated by addition of Chloride Free Dye Stimulation Solution and the fluorescence signal was read for 15 min. The CFTR-mediated chloride transport for each condition was determined from the AUC of the fluorescence response to acute forskolin and 300 nM N-[2,4-bis(1,1-dimethylethyl)-5-hydroxyphenyl]-1,4-dihydro-4-oxoquinoline-3-carboxamide stimulation. Chloride transport was then expressed as a percentage of the chloride transport following treatment with 3 μM Compound A, 3 μM (R)-1-(2,2-difluorobenzo[d][1,3]dioxol-5-yl)-N-(1-(2,3-dihydroxypropyl)-6-fluoro-2-(1-hydroxy-2-methylpropan-2-yl)-1H-indol-5-yl)cyclopropanecarboxamide and 300 nM acute N-[2,4-bis(1,1-dimethylethyl)-5-hydroxyphenyl]-1,4-dihydro-4-oxoquinoline-3-carboxamide triple combination control (% Activity).

SMILES	Corrector Assay B % activity	EC50 [µM]
CC1(C)C[C@@H]2CCC(c3ccccc3)Nc3cccc(n3)S(=O)(=O)NC(=O)c3cccnc3N1C2 (single isomer, unassigned) [Compound 289]	+++ (+++ is >60%)	< 1
CC(C)(C)c1ccc2c(n1)N1C[C@@H](CCC(c3ccc(C(=O)O)cc3)Nc3cccc(n3)S(=O)(=O)NC2=O)CC1(C)C (single isomer, unassigned) [Compound 290]	++ (++ is 30-60%)	1 to 3
CC(C)(C)c1ccc2c(n1)N1C[C@@H](CCC(c3ccc(C(=O)O)cc3)Nc3cccc(n3)S(=O)(=O)NC2=O)CC1(C)C (single isomer, unassigned) [Compound 291]	++ (++ is 30-60%)	1 to 3
CC1(C)C[C@@H]2CCC(c3ccc(C(=O)O)cc3)Nc3cccc(n3)S(=O)(=O)NC(=O)c3ccc(-n4ccc(OCCC5(C(F)(F)F)CC5)n4)nc3N1C2 (single isomer, unassigned) [Compound 370]	+++ (+++ is >60%)	1 to 3
CC1(C)C[C@@H]2CCC(c3ccc(C(=O)O)cc3)Nc3cccc(n3)S(=O)(=O)NC(=O)c3ccc(-n4ccc(OCCC5(C(F)(F)F)CC5)n4)nc3N1C2 (single isomer, unassigned) [Compound 371]	+++ (+++ is >60%)	< 1
CC1(C)C[C@@H]2CCC(c3cncnc3)Nc3cccc(n3)S(=O)(=O)NC(=O)c3ccc(-n4ccc(OCCC5(C(F)(F)F)CC5)n4)nc3N1C2 (single isomer, unassigned) [Compound 374]	+++ (+++ is >60%)	< 1
CC1(C)C[C@@H]2CCC(c3cncnc3)Nc3cccc(n3)S(=O)(=O)NC(=O)c3ccc(-n4ccc(OCCC5(C(F)(F)F)CC5)n4)nc3N1C2 (single isomer, unassigned) [Compound 375]	+++ (+++ is >60%)	< 1

Results, then the molecule that gave them:

Corrector Assay B % activity	EC50 [µM]	SMILES
+++ (+++ is >60%)	< 1	CC(C)(C)c1ccc2c(n1)N1C[C@@H](CCC(c3cncnc3)Nc3cccc(n3)S(=O)(=O)NC2=O)CC1(C)C (single isomer, unassigned) [Compound 298]
+++ (+++ is >60%)	< 1	CC(C)C1CC[C@@H]2CN(c3nc(-n4ccc(OCCC5(C(F)(F)F)CC5)n4)ccc3C(=O)NS(=O)(=O)c3cccc(n3)N1)C(C)(C)C2 (single isomer, unassigned) [Compound 358]
+ (+ is <30%)	–	CCCC1(C)CC2CCCNc3cccc(n3)S(=O)(=O)NC(=O)c3ccc(-n4ccc(OCCC5(C(F)(F)F)CC5)n4)nc3N1C2 (single isomer, unassigned) [Compound 365, 12-methyl-12-propyl-8-(3-{2-[1-(trifluoromethyl)cyclopropyl]ethoxy}-1H-pyrazol-1-yl)-2λ^6-thia-3,9,11,18,23-pentaazatetracyclo[17.3.1.111,14.05,10]tetracosa-1(22),5,7,9,19(23),20-hexaene-2,2,4-trione]
+ (+ is <30%)	–	CCCC1(C)CC2CCCNc3cccc(n3)S(=O)(=O)NC(=O)c3ccc(-n4ccc(OCCC5(C(F)(F)F)CC5)n4)nc3N1C2 (single isomer, unassigned) [Compound 366, 12-methyl-12-propyl-8-(3-{2-[1-(trifluoromethyl)cyclopropyl]ethoxy}-1H-pyrazol-1-yl)-2λ^6-thia-3,9,11,18,23-pentaazatetracyclo[17.3.1.111,14.05,10]tetracosa-1(22),5,7,9,19(23),20-hexaene-2,2,4-trione]
+++ (+++ is >60%)	< 1	CCCC1(C)CC2CCCNc3cccc(n3)S(=O)(=O)NC(=O)c3ccc(-n4ccc(OCCC5(C(F)(F)F)CC5)n4)nc3N1C2 (single isomer, unassigned) [Compound 368, 12-methyl-12-propyl-8-(3-{2-[1-(trifluoromethyl)cyclopropyl]ethoxy}-1H-pyrazol-1-yl)-2λ^6-thia-3,9,11,18,23-pentaazatetracyclo[17.3.1.111,14.05,10]tetracosa-1(22),5,7,9,19(23),20-hexaene-2,2,4-trione]
